Measurements from EP1884568A1, “METHOD FOR IDENTIFICATION OF COMPOUND HAVING ANTIDEPRESSANT EFFECT” (Daiichi Sankyo Company, Limited, priority 2005, dated 2006).

Molecular target: T1, ph01207 (Homo sapiens, UniProt O60241, DEL308-362)
T1 construct: containing an ORF that encodes 1518 amino acid residues; expressed in transfected cells; host or cells: CHO-K1 (clone ph01207 #3F8-17)
Test: Inhibition of the CCK-8S response (intracellular Ca2+), ph01207 #3F8-17 cell line
Format: cell-based
Conditions: for response of ph01207 #3F8-17 cell line to the ligand (increase in intracellular Ca^2+ by CCK-8S): compound 10 µg/mL added 35 sec before 10 nM CCK-8S, buffer as control
Experimental: Identification of a compound that inhibits a response of ph01207 gene product to a ligand was carried out with a system for measuring a change in intracellular calcium concentration using ph01207 expressing cell line.
ph01207 expressing cell line was constructed as follows. […] Detection of the expression of introduced genes in cells was carried out by FCM analysis using anti-ph01207 antibody
As a result, a plurality of cell lines that stably expressed ph01207 was obtained. Identification of a compound was carried out using ph01207 #3F8-17 cell line that was one of clones among them.
As a ligand, CCK-8S (Peptide Institute) was used. 0.52 mg of CCK-8S (SEQ ID NO: 14) was dissolved in 4.5 mL of 1% NaHCO3 (Wako) to prepare a solution of 0.1 mM concentration. As a test compound, SoftFocus GPCR Target-Directed Library that is a compound library (BioFocus) was used. A 2 mg/mL DMSO solution of each compound was diluted 25-fold with PBS to adjust the concentration to 80 µg/mL for use.
Specifically, identification of a compound was carried out as follows. ph01207 #3F8-17 cell line was seeded in 96-well plates with a black wall surface and transparent bottom) at 3 × 10^4 cells /100 µL medium/well, and cultured at 37°C in the presence of 5% CO2. DMEM/F12 (supplied by Gibco) containing 10% fetal calf serum (supplied by Moregate) was used as the medium. On the next day, 20 µL of 6 × loading buffer was added to each well to allow for a reaction at 37°C for 1 h so as to allow cells to incorporate fluorescent dye contained in the loading buffer. The 6 × loading buffer was prepared by dissolving component A of the FLIPR Calcium 3 Assay Kit (Molecular Devices Corp.) with component B followed by adding probenecid (Sigma) to have a final concentration of 15 mM. After the reaction, CCK-8S (Peptide Institute) and a compound were added to measure a change in the fluorescence intensity time-dependently for each well for 80 sec. […] A time-dependent measurement of the change in the fluorescence intensity was carried out using FLEXstation (Molecular Devices Corp.).

T1 sequence (O60241 with tags, fused parts or gaps isoform O60241-3 DEL296-350): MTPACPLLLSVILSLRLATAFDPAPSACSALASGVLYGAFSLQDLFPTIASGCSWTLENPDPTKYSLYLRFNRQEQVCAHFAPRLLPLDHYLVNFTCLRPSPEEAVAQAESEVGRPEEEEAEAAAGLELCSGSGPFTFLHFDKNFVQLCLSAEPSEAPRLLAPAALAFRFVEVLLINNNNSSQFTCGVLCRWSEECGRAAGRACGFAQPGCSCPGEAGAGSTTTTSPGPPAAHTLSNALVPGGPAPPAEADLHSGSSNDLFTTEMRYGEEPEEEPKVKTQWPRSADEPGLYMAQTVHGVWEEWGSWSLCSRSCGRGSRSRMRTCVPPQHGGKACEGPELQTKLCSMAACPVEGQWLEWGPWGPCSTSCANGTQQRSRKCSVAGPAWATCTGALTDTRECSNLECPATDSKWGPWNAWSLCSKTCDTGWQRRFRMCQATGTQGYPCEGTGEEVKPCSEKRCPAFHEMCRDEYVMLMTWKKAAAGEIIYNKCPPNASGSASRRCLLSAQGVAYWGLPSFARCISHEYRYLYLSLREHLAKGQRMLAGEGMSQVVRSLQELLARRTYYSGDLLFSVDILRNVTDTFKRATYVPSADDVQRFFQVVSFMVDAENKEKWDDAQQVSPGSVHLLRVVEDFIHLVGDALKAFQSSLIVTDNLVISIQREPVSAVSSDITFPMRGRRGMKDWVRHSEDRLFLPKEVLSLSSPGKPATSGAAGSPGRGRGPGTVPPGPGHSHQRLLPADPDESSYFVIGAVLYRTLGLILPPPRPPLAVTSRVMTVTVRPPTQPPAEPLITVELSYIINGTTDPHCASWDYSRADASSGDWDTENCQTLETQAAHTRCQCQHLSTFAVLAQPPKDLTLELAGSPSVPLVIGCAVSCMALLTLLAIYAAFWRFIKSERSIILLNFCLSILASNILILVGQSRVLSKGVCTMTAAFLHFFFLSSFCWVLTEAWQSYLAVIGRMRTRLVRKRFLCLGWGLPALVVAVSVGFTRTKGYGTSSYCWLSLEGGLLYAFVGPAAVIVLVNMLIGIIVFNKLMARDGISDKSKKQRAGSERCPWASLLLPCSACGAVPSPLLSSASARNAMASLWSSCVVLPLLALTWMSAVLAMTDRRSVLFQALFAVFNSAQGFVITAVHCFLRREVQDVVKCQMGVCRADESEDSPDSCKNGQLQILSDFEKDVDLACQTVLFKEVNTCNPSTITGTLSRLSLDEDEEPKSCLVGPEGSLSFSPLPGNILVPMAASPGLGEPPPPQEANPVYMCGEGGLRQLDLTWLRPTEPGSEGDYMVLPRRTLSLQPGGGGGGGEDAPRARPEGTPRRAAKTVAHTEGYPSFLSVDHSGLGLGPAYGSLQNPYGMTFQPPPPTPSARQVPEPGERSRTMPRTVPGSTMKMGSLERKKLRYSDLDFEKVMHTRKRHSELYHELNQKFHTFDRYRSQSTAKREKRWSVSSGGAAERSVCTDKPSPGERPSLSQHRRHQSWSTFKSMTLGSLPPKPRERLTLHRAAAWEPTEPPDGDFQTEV

Row | SMILES | change in fluorescence intensity on addition of the compound alone (ph01207 #3F8-17 cell line, compound 10 µg/mL added at 15 sec, before CCK-8S) | response of ph01207 #3F8-17 cell line to the ligand (increase in intracellular Ca^2+ by CCK-8S)
1 | O=C(Nc1cccc(C(F)(F)F)c1)N1CCC2(C1)NCCc1c2[nH]c2ccccc12 (stereo not drawn) [compound A] | No change | 
2 | O=C(Nc1ccccc1)N1CCC2(CC1)NCCc1c2[nH]c2ccccc12 [compound B] |  | inhibited
3 | O=C(c1cnc2ccccc2c1)N1CCC2(CC1)OCc1ccccc1O2 [compound C] |  | inhibited
